Measurements published in patent US11667784B2, “Copolymers including cinchona alkaloid components and one or more acrylamide or acrylate containing components, complexes containing the same, and methods of using the” (REGENTS OF THE UNIVERSITY OF MINNESOTA, priority 2017, dated 2023).
One block for each compound: values may come before it.

Experiments:
[1] = cited from earlier work
plasmid DNA = assay: DNA binding by gel electrophoresis (gel shift assay); conditions: plasmid DNA 4.7 kb, equivalent molar ratios to HEA-quinine copolymer
Method: DNA Binding Studies by Gel Electrophoresis. After the 1 hour incubation period, the polyplex solutions of all N/P ratios (10 μL) were each mixed with a 30% glycerol solution in water (2 μL). The solutions were loaded into 0.6% agarose gel containing ethidium bromide (6 μL/100 mL TAE buffer) and run at 60 V for 60 minutes. The gel was visualized under UV transilluminator (λ=366 nm).
The first step in this process is to mix the polymer and pDNA together to form the polyplex. […] Once combined, the solution is left to incubate at room temperature for 1 hour. Polyplexes are formed with varying concentrations of polymer to DNA which are expressed by their N/P ratio. The N/P ratio expresses the molar ratio of cationic amine groups on the polymer (N) over the number of anionic phosphate groups of the DNA backbone (P). […]
Upon a slow addition of an aqueous polymer solution to an aqueous DNA solution (0.02 μg/μL) at a 1:1 v/v ratio, the polymer and DNA self-assemble to form polyplexes. The target concentration of the polymer in the polyplex solution was determined by the target N/P ratio which is the molar ratio of cationic amine groups on the polymer (N) to anionic phosphate groups of the DNA backbone (P). […]

HeLa cells = type: cell-based, human
Excerpt: Transfection with the acrylate copolymer poly(HEA-co-acrylate), however, provided more promising results. […] Transfection studies with the HEA copolymer will continue at higher N/P ratios in hope of achieving transfection efficiency similar to that of PEI while maintaining limited toxicity.

Compound: C=C(C)C(=O)NCCN [AEMA, N-(2-aminoethyl) methacrylamide]
pKa of basic amine ([1]; basic tertiary amine of chloroquine and quinine, amine of AEMA): 9.3

ability to bind DNA in gel shift assay (plasmid DNA): inability
Compound: C=C[C@H]1C[N@@]2CC[C@H]1C[C@H]2[C@H](O)c1ccnc2ccc(OC)cc12 [quinine]
pKa of quinoline nitrogen ([1]; 4-aminoquinoline nitrogen of chloroquine vs quinoline nitrogen of quinine): 5.2

Compound: poly(HEA-co-quinine) [HEA copolymer]
toxicity (qualitative inspection) (HeLa cells): much less toxic
